The values below come from US8815909B2, “Diaminocyclohexane compounds and uses thereof” (Bristol-Myers Squibb Company, priority 2011, dated 2014).

The target in the experiment is T1, human Y4 receptor (Homo sapiens, UniProt P50391).
T1 construct: expressed in transfected cells
The experiment in a line: NPY4 cAMP HTRF Agonist Assay (inhibitory cAMP assay, Gi activation by Y4 agonism). Type of experiment: cell-based. The conditions noted are these: second TABLE 1, R2 is Phenyl-CF3; read-out: hY4 CAMP EC50. The essentials:
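CHO cells stably expressing human Y4, 5000/well, exposed to compound with forskolin and IBMX in PBS for 30 min at room temperature. Gi-mediated inhibition of cAMP then measured by HTRF after 1 h with d2-conjugate and anti-cAMP cryptate.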

T1 sequence (P50391 whole entry): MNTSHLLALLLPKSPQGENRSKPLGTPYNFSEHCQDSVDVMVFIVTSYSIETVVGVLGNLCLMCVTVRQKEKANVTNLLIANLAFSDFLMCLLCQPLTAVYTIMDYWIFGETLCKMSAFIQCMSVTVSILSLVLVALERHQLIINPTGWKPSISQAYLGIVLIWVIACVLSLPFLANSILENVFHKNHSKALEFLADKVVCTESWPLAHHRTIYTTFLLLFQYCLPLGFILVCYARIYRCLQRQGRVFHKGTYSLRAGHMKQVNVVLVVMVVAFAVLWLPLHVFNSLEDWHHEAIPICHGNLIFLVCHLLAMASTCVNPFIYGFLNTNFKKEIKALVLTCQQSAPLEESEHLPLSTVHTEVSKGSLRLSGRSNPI

Turning to `CCCCNC(=O)c1cccc(-c2ccnc(N[C@@H]3CCCC[C@H]3N[C@H]3CCCN(c4ccc(C(F)(F)F)cc4)C3)c2)c1` [Example 141], the EC50 amounted to 227 nM. In the case of `CCNCc1cccc(-c2ccnc(N[C@@H]3CCCC[C@H]3N[C@H]3CCCN(c4ccc(C(F)(F)F)cc4)C3)c2)c1` [Example 142], the EC50 worked out at 58 nM.

In the case of `CC(C)NCc1cccc(-c2ccnc(N[C@@H]3CCCC[C@H]3N[C@H]3CCCN(c4ccc(C(F)(F)F)cc4)C3)c2)c1` [Example 143], the EC50 was determined as 107 nM.

For `CNCc1cccc(-c2ccnc(N[C@@H]3CCCC[C@H]3N[C@H]3CCCN(c4ccc(C(F)(F)F)cc4)C3)c2)c1` [Example 144], the EC50 amounted to 26 nM.

Consider `FC(F)(F)c1ccc(N2CCC[C@H](N[C@@H]3CCCC[C@H]3Nc3cc(-c4cccc5c4CCNC5)ccn3)C2)cc1` [Example 145], for which the EC50 came to 905 nM.

Consider `FC(F)(F)c1ccc(N2CCC[C@H](N[C@@H]3CCCC[C@H]3Nc3cc(-c4ccc5c(c4)CNCC5)ccn3)C2)cc1` [Example 146], for which the concentration giving a half-maximal response (EC50) turned out to be 726 nM. The figure for `CC(C)NC(=O)c1cccc(-c2ccnc(N[C@@H]3CCCC[C@H]3N[C@H]3CCCN(c4ccc(C(F)(F)F)cc4)C3)c2)c1` [Example 147] is 20 nM; for `CC(C)CNC(=O)c1cccc(-c2ccnc(N[C@@H]3CCCC[C@H]3N[C@H]3CCCN(c4ccc(C(F)(F)F)cc4)C3)c2)c1` [Example 148] it is 205 nM.

For `OCCc1cccc(-c2ccnc(N[C@@H]3CCCC[C@H]3N[C@H]3CCCN(c4ccc(C(F)(F)F)cc4)C3)c2)c1` [Example 149], the EC50 was 30 nM. The figure for `O=C(NC1CCCC1)c1cccc(-c2ccnc(N[C@@H]3CCCC[C@H]3N[C@H]3CCCN(c4ccc(C(F)(F)F)cc4)C3)c2)c1` [Example 150] is 192 nM; for `OC1(c2cccc(-c3ccnc(N[C@@H]4CCCC[C@H]4N[C@H]4CCCN(c5ccc(C(F)(F)F)cc5)C4)c3)c2)CC1` [Example 151] it is 292 nM; for `OCCc1ccc(-c2ccnc(N[C@@H]3CCCC[C@H]3N[C@H]3CCCN(c4ccc(C(F)(F)F)cc4)C3)c2)cc1` [Example 152] it is 508 nM. The figure for `OCCCc1cccc(-c2ccnc(N[C@@H]3CCCC[C@H]3N[C@H]3CCCN(c4ccc(C(F)(F)F)cc4)C3)c2)c1` [Example 153] is 31 nM; for `OC1(c2cccc(-c3cnc(N[C@@H]4CCCC[C@H]4N[C@H]4CCCN(c5ccc(C(F)(F)F)cc5)C4)o3)c2)CC1` [Example 154] it is 36 nM; for `CC(C)(C)c1cccc(-c2ccnc(N[C@@H]3CCCC[C@H]3N[C@H]3CCCN(c4ccc(C(F)(F)F)cc4)C3)c2)c1` [Example 155] it is 235 nM. Next, `OCCc1ccccc1-c1ccnc(N[C@@H]2CCCC[C@H]2N[C@H]2CCCN(c3ccc(C(F)(F)F)cc3)C2)c1` [Example 156]: 50 nM; `FC(F)(F)c1ccc(N2CCC[C@H](N[C@@H]3CCCC[C@H]3Nc3cc(-c4ccc5scnc5c4)ccn3)C2)cc1` [Example 157]: 194 nM. On to `FC(F)(F)c1ccc(N2CCC[C@H](N[C@@H]3CCCC[C@H]3Nc3cc(-c4cccc(-n5cccn5)c4)ccn3)C2)cc1` [Example 158], for which the EC50 was determined as 53 nM. Next, `CN(C)c1cccc(-c2ccnc(N[C@@H]3CCCC[C@H]3N[C@H]3CCCN(c4ccc(C(F)(F)F)cc4)C3)c2)c1` [Example 159]: 239 nM. The figure for `N#Cc1cccc(-c2cnc(N[C@@H]3CCCC[C@H]3N[C@H]3CCCN(c4ccc(C(F)(F)F)cc4)C3)o2)c1` [Example 160] is 548 nM. With `OCCC#Cc1ccnc(N[C@@H]2CCCC[C@H]2N[C@H]2CCCN(c3ccc(C(F)(F)F)cc3)C2)c1` [Example 161], the EC50 is 31 nM. Next, `CC(C)(O)C#Cc1ccnc(N[C@@H]2CCCC[C@H]2N[C@H]2CCCN(c3ccc(C(F)(F)F)cc3)C2)c1` [Example 162]: 546 nM; `OCC#Cc1ccnc(N[C@@H]2CCCC[C@H]2N[C@H]2CCCN(c3ccc(C(F)(F)F)cc3)C2)c1` [Example 163]: 74 nM.

Take `FC(F)(F)c1ccc(N2CCC[C@H](N[C@@H]3CCCC[C@H]3Nc3cc(-c4cccc(N5CCCC5)c4)ccn3)C2)cc1` [Example 164]: the EC50 came to 104 nM.

For `OCc1cc(-c2ccnc(N[C@@H]3CCCC[C@H]3N[C@H]3CCCN(c4ccc(C(F)(F)F)cc4)C3)c2)ccc1F` [Example 165], the EC50 is 38 nM. Next, `OCCCC#Cc1ccnc(N[C@@H]2CCCC[C@H]2N[C@H]2CCCN(c3ccc(C(F)(F)F)cc3)C2)c1` [Example 166]: 17 nM. Next, `C[C@H](O)c1cccc(-c2ccnc(N[C@@H]3CCCC[C@H]3N[C@H]3CCCN(c4ccc(C(F)(F)F)cc4)C3)c2)c1` [Example 167]: 6 nM; `C[C@@H](O)c1cccc(-c2ccnc(N[C@@H]3CCCC[C@H]3N[C@H]3CCCN(c4ccc(C(F)(F)F)cc4)C3)c2)c1` [Example 168]: 14 nM; `CC(C)(C)OC(=O)Nc1cccc(-c2cnc(N[C@@H]3CCCC[C@H]3N[C@H]3CCCN(c4ccc(C(F)(F)F)cc4)C3)o2)c1` [Example 169]: 32 nM. Regarding `CC(C)(O)c1cccc(-c2cnc(N[C@@H]3CCCC[C@H]3N[C@H]3CCCN(c4ccc(C(F)(F)F)cc4)C3)o2)c1` [Example 170], the EC50 came out at 48 nM.

For the molecule `FC(F)(F)c1ccc(N2CCC[C@H](N[C@@H]3CCCC[C@H]3Nc3cc(-c4cn[nH]c4)ccn3)C2)cc1` [Example 171], the EC50 amounted to 142 nM. Turning to `Nc1cccc(-c2cnc(N[C@@H]3CCCC[C@H]3N[C@H]3CCCN(c4ccc(C(F)(F)F)cc4)C3)o2)c1` [Example 172], the EC50 amounted to 5 nM. Next, `COC(=O)N(C)c1cccc(-c2ccnc(N[C@@H]3CCCC[C@H]3N[C@H]3CCCN(c4ccc(C(F)(F)F)cc4)C3)c2)c1` [Example 173]: 920 nM; `CC(=O)N(C)c1cccc(-c2ccnc(N[C@@H]3CCCC[C@H]3N[C@H]3CCCN(c4ccc(C(F)(F)F)cc4)C3)c2)c1` [Example 174]: 363 nM.

On to `CNC(=O)Cc1cccc(-c2ccnc(N[C@@H]3CCCC[C@H]3N[C@H]3CCCN(c4ccc(C(F)(F)F)cc4)C3)c2)c1` [Example 175], for which the concentration for a half-maximal effect (EC50) came out at 2 nM. `FC(F)(F)c1ccc(N2CCC[C@H](N[C@@H]3CCCC[C@H]3Nc3ncc(-c4ccccc4)cn3)C2)cc1` [Example 176]: the EC50 was 579 nM. Next, `FC(F)(F)Oc1cccc(-c2cnc(N[C@@H]3CCCC[C@H]3N[C@H]3CCCN(c4ccc(C(F)(F)F)cc4)C3)nc2)c1` [Example 177]: 781 nM. Next, `NC(=O)c1cccc(-c2cnc(N[C@@H]3CCCC[C@H]3N[C@H]3C[C@@H]4C[C@H]3N(c3ccc(C(F)(F)F)cc3)C4)o2)c1` [Example 178]: 2 nM. The figure for `NC(=O)c1cccc(-c2ccnc(N[C@@H]3CCCC[C@H]3N[C@H]3C[C@@H]4C[C@H]3N(c3ccc(C(F)(F)F)cc3)C4)c2)c1` [Example 179] is 7 nM. As for `FC(F)(F)c1ccc(N2CCC[C@H](N[C@@H]3CCCC[C@H]3NC3=NOC(c4ccccc4)C3)C2)cc1` (stereo partly drawn) [Example 180], the EC50 is 54 nM. Next, `FC(F)(F)Oc1ccc(-c2cnc(N[C@@H]3CCCC[C@H]3N[C@H]3C[C@@H]4C[C@H]3N(c3ccc(C(F)(F)F)cc3)C4)o2)cc1` [Example 181]: 126 nM; `FC(F)(F)c1ccc(N2CCC[C@H](N[C@@H]3CCCC[C@H]3Nc3ncc(Br)cn3)C2)cc1` [Example 182]: 258 nM; `FC(F)(F)c1ccc(N2CCC[C@H](N[C@@H]3CCCC[C@H]3Nc3cc(-c4cccc(C5CCCN5)c4)ccn3)C2)cc1` (stereo partly drawn) [Example 183]: 153 nM. Next, `CCOC(=O)c1cnc(N[C@@H]2CCCC[C@H]2N[C@H]2CCCN(c3ccc(C(F)(F)F)cc3)C2)o1` [Example 184, ethyl 2-(((1R,2R)-2-(((S)-1-(4-(trifluoromethyl)phenyl)piperidin-3-yl)amino)cyclohexyl)amino)oxazole-5-carboxylate]: 764 nM.

On to `CCCC#Cc1ccnc(N[C@@H]2CCCC[C@H]2N[C@H]2CCCN(c3ccc(C(F)(F)F)cc3)C2)c1` [Example 185], for which the EC50 was determined as 218 nM. Turning to `OCCCCCc1ccnc(N[C@@H]2CCCC[C@H]2N[C@H]2CCCN(c3ccc(C(F)(F)F)cc3)C2)c1` [Example 186], the EC50 was found to be 115 nM. Next, `OCCCCc1ccnc(N[C@@H]2CCCC[C@H]2N[C@H]2CCCN(c3ccc(C(F)(F)F)cc3)C2)c1` [Example 187]: 42 nM; `Cn1cc(-c2ccnc(N[C@@H]3CCCC[C@H]3N[C@H]3CCCN(c4ccc(C(F)(F)F)cc4)C3)c2)cn1` [Example 188]: 1040 nM.

As for `CC(C)(O)Cc1cccc(-c2ccnc(N[C@@H]3CCCC[C@H]3N[C@H]3CCCN(c4ccc(C(F)(F)F)cc4)C3)c2)c1` [Example 189], the concentration for a half-maximal effect (EC50) was found to be 27 nM.

Regarding `FC(F)(F)c1ccc(N2CCC[C@H](N[C@@H]3CCCC[C@H]3Nc3cc(-n4cccc4)ccn3)C2)cc1` [Example 190], the EC50 is 51 nM. The figure for `FC(F)(F)c1ccc(N2CCC[C@H](N[C@@H]3CCCC[C@H]3Nc3cc(-c4ccncc4)ccn3)C2)cc1` [Example 191] is 48 nM. As for `N#Cc1ccc(N[C@@H]2CCCC[C@H]2N[C@H]2CCCN(c3ccc(C(F)(F)F)cc3)C2)nc1` [Example 192], the half-maximal effective concentration (EC50) was determined as 284 nM. Next, `N#Cc1cnc(N[C@@H]2CCCC[C@H]2N[C@H]2CCCN(c3ccc(C(F)(F)F)cc3)C2)s1` [Example 193]: 70 nM.

For `N#Cc1ccnc(N[C@@H]2CCCC[C@H]2N[C@H]2CCCN(c3ccc(C(F)(F)F)cc3)C2)n1` [Example 194], the EC50 is 606 nM. The figure for `FC(F)(F)c1ccc(N2CCC[C@H](N[C@@H]3CCCC[C@H]3Nc3cc4ccccc4cn3)C2)cc1` [Example 195] is 48 nM; for `FC(F)(F)c1ccc(N2CCC[C@H](N[C@@H]3CCCC[C@H]3Nc3ncc(Cl)cn3)C2)cc1` [Example 196] it is 809 nM. With `FC(F)(F)Oc1ccccc1-c1cnc(N[C@@H]2CCCC[C@H]2N[C@H]2CCCN(c3ccc(C(F)(F)F)cc3)C2)o1` [Example 197], the EC50 worked out at 12 nM.
